Read-outs that look alike come from different tables or passages of the source.
Columns and labels:
[1] = tested on: HSV1; test: Viral qPCR assay, HSV1; assay type: cell-based; details: infected cells, viral genome copies by qPCR normalized to PPIA, read-out: HSV1 Cell EC50
In short: (§1)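 MRC5, Vero or MeWo cells were infected in suspension and added to compounds in a 10-point, 3-fold dilution series, then incubated ~72 hrs at 37° C. Lysates were proteinase K-treated, and viral genome copies were quantified by TaqMan qPCR against a plasmid standard curve and normalized to PPIA. EC50 came from a 4-parameter fit.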

[2] = biological target: Human cytomegalovirus DNA polymerase (Human cytomegalovirus (strain AD169) (HHV-5) (Human herpesvirus 5), UniProt P08546); test: CMV polymerase assay (AlphaLISA); assay type: biochemical; details: HCMV polymerase 0.2 nM, 30 min pre-incubation, 60 minute at 37° C.
Experimental: (§2) Human cytomegalovirus and varicella zoster virus DNA polymerases were expressed via baculovirus vector in SF21 cells and purified. Heterodimeric nucleic acid substrate used in the herpesvirus polymerase reactions were generated by annealing a 59-mer template to a 17-mer digoxigenin-labeled primer. Polymerase (HCMV final concentration of 0.2 nM; VZV final concentration of 0.4 nM) was combined with an inhibitor compound or DMSO in assay buffer (10 mM HEPES, pH 7.5, 25 mM KCl, 25 mM NaCl, 5 mM MgCl2, 5% glycerol, 0.67 mg/ml bovine serum albumin, and 1 mM tris(2-carboxyethyl)phosphine)), and this mixture was pre-incubated for 30 minutes at room temperature in 384-well microtiter plates. The polymerization reaction was initiated by the addition of template/primer substrate (final concentration: 1.6 nM), and dNTPs (final concentration: 24 nM dCTP, 24 nMdGTP, 16 nM dATP, 16 nM dTTP, and 0.8 nM biotin-dUTP). After a 60 minute incubation period at 37° C., the reactions were terminated using quench buffer (25 mM HEPES pH 7.5, 100 mM NaCl, 0.25% Tween-20, 12 mM EDTA, and 1 mg/ml bovine serum albumin). Incorporation of biotinylated UTP was detected with 2.5-5 μg/mL anti-DIG AlphaLISA acceptor beads and 5-10 μg/mL streptavidin AlphaLISA donor beads (PerkinElmer). Compound effects were normalized to the window defined by the controls (DMSO only and pre-quenched wells), and were fit using a 4-parameter algorithm to report an IC50.

[3] = tested on: CMV; test: Viral qPCR assay, CMV; assay type: cell-based; details: infected cells, viral genome copies by qPCR normalized to PPIA, read-out: CMV Cell EC50
In short: as §1

[4] = tested on: HSV2; test: Viral qPCR assay, HSV2; assay type: cell-based; details: infected cells, viral genome copies by qPCR normalized to PPIA, read-out: HSV2 Cell EC50
In short: as §1

[5] = biological target: varicella zoster virus DNA polymerase (Varicella-zoster virus (strain Dumas) (HHV-3) (Human herpesvirus 3), UniProt P09252); test: VZV polymerase assay (AlphaLISA); assay type: biochemical; details: VZV polymerase 0.4 nM, 30 min pre-incubation, 60 minute at 37° C.
Experimental: as §2

Row | SMILES | EC50 ([1]; Human alphaherpesvirus 1, 72 h) | IC50 [2] | EC50 ([3]; Human betaherpesvirus 5, 72 h) | EC50 ([4]; Human alphaherpesvirus 2, 72 h) | IC50 [5] | EC50 ([1]; ~72 hrs) | EC50 ([3]; ~72 hrs) | EC50 ([4]; ~72 hrs)
1 | C[C@@H]1CN(C2CCOC2)CCN1c1ccc2ncn(Cc3ccc(Cl)cc3)c(=O)c2c1 (single isomer, unassigned) [Example 44] | 1460 nM | 77 nM | 521 nM | 1250 nM | 144 nM |  |  | 
2 | Cc1nc2cc(-c3cc4n(n3)CCN(C)C4)c(O[C@H]3CCN4C(=O)OC[C@@H]4C3)cc2c(=O)n1Cc1ccc(Cl)cc1 [Example 86] | 58 nM | 0.44 nM | 68 nM | 41 nM | 0.44 nM |  |  | 
3 | CC(=O)N1CCC(Oc2ccc3ccn(Cc4ccc(Cl)cc4)c(=O)c3c2)CC1 [Example 22] | 5630 nM | 386 nM | 4240 nM | 4280 nM | 71 nM |  |  | 
4 | Cc1nc2cc(C3CC(O)C3)c(O[C@H]3CCN4C(=O)OC[C@@H]4C3)cc2c(=O)n1Cc1ccc(Cl)cc1 (single isomer, unassigned) [Example 61] |  | 6.5 nM |  |  | 11 nM | 250 nM | 173 nM | 202 nM
5 | O=C1OC[C@@H]2C[C@@H](Oc3cc(-c4cnco4)c4ncn(Cc5ccc(Cl)cc5)c(=O)c4c3)CCN12 [Example 42] | 233 nM | 21 nM | 181 nM | 92 nM | 13 nM |  |  | 
6 | Cc1nc2cc(-c3cn[nH]c3)c(O[C@H]3CCN4C(=O)OC[C@@H]4C3)cc2c(=O)n1Cc1ccc(Cl)cc1 [Example 53] | 89 nM | 0.76 nM | 86 nM | 35 nM | 0.56 nM |  |  | 
7 | Cc1nc2cc(-c3cnn(C(F)F)c3)c(O[C@H]3CCN4C(=O)OC[C@@H]4C3)cc2c(=O)n1Cc1ccc(C#N)cc1 [Example 6] |  | 1.8 nM |  |  | 5 nM | 47 nM | 56 nM | 29 nM
8 | Cc1nc2cc(-c3cn(C(F)F)cn3)c(O[C@H]3CCN4C(=O)OC[C@@H]4C3)cc2c(=O)n1Cc1ccc(Cl)cc1 [Example 82] | 63 nM | 5.5 nM | 52 nM | 45 nM | 7.1 nM |  |  | 
9 | N#Cc1ccc(Cn2c(=O)[nH]c3cc(-c4cnco4)c(O[C@H]4CCN5C(=O)OC[C@@H]5C4)cc3c2=O)cc1 [Example 10] |  | 0.24 nM |  |  | 0.28 nM | 109 nM | 70 nM | 68 nM
10 | Cc1nc2cc(-c3cnco3)c(O[C@H]3CCN4C(=O)OC[C@@H]4C3)cc2c(=O)n1Cc1ccc(C#N)cc1 [Example 60] | 84 nM | 0.82 nM | 53 nM | 40 nM | 0.44 nM |  |  | 
11 | O=C1OC[C@@H]2C[C@@H](Oc3cc4c(=O)n(Cc5ccc(Cl)cc5)cnc4nc3-c3cnn(C(F)F)c3)CCN12 [Example 36] | 49 nM | 1.9 nM | 37 nM | 28 nM | 1.5 nM |  |  | 
12 | CCOc1ncc(-c2cc3nc(C)n(Cc4ccc(Cl)cc4)c(=O)c3cc2O[C@H]2CCN3C(=O)OC[C@@H]3C2)cn1 [Example 98] | 256 nM | 16 nM | 284 nM | 185 nM | 15 nM |  |  | 
13 | COc1nc2ccn(Cc3ccc(Cl)cc3)c(=O)c2cc1O[C@H]1CCN2C(=O)OC[C@@H]2C1 [Example 39] | 1340 nM | 28 nM | 520 nM | 952 nM | 41 nM |  |  | 
14 | CC(C)(O)Cc1nc2ncn(Cc3ccc(Cl)cc3)c(=O)c2cc1O[C@H]1CCN2C(=O)OC[C@@H]2C1 [Example 45] | 268 nM | 11 nM | 269 nM | 309 nM | 25 nM |  |  | 
15 | CC1CN(C)CCC1(F)c1ccc2ncn(Cc3ccc(Cl)cc3)c(=O)c2c1 (single isomer, unassigned) [Example 47] | 1580 nM | 84 nM | 550 nM | 1370 nM | 102 nM |  |  | 
16 | Cc1nc2cc(-c3nc4n(n3)CCN(C)C4)c(O[C@H]3CCN4C(=O)OC[C@@H]4C3)cc2c(=O)n1Cc1ccc(Cl)cc1 [Example 81] | 364 nM | 15 nM | 265 nM | 307 nM | 27 nM |  |  | 

Row | SMILES | EC50 ([1]; Human alphaherpesvirus 1, 72 h) | IC50 [2] | EC50 ([3]; Human betaherpesvirus 5, 72 h) | EC50 ([4]; Human alphaherpesvirus 2, 72 h) | IC50 [5] | EC50 ([1]; ~72 hrs) | EC50 ([3]; ~72 hrs) | EC50 ([4]; ~72 hrs)
17 | CC(C)(N)Cc1cc2ccn(Cc3ccc(Cl)cc3)c(=O)c2cc1O[C@H]1CCN2C(=O)OC[C@@H]2C1 [Example 32] | 772 nM | 15 nM | 392 nM | 402 nM | 33 nM |  |  | 
18 | Cc1nc2cc(-c3cnc(C4CC4)nc3)c(O[C@H]3CCN4C(=O)OC[C@@H]4C3)cc2c(=O)n1Cc1ccc(Cl)cc1 [Example 95] | 301 nM | 18 nM | 366 nM | 182 nM | 19 nM |  |  | 
19 | Cc1nc2ccc(O[C@H]3CCN4C(=O)OC[C@@H]4C3)cc2c(=O)n1Cc1ccc(C#N)cc1 [Example 59] | 746 nM | 31 nM | 347 nM | 561 nM | 29 nM |  |  | 
20 | Cc1nc2cc(-c3cn(C(F)F)cn3)c(O[C@H]3CCN4C(=O)OC[C@@H]4C3)cc2c(=O)n1Cc1ccc(C#N)cc1 [Example 80] | 157 nM | 7.6 nM | 124 nM | 227 nM | 5.6 nM |  |  | 
21 | Cc1nc2cc(-c3cnco3)c(O[C@H]3CCN4C(=O)OC[C@@H]4C3)cc2c(=O)n1Cc1ccc(Cl)cc1 [Example 51] | 26 nM | 0.22 nM | 21 nM | 16 nM | 0.44 nM |  |  | 
22 | Cc1nc2cc(C3CC(O)C3)c(O[C@H]3CCN4C(=O)OC[C@@H]4C3)cc2c(=O)n1Cc1ccc(Cl)cc1 (single isomer, unassigned) [Example 62] |  | 1 nM |  |  | 4.8 nM | 113 nM | 57 nM | 57 nM
23 | COc1nc2cc(-c3cnco3)c(O[C@H]3CCN4C(=O)OC[C@@H]4C3)cc2c(=O)n1Cc1ccc(C#N)cc1 [Example 9] |  | 0.44 nM |  |  | 0.44 nM | 20 nM | 35 nM | 13 nM
24 | O=C1OC[C@@H]2C[C@@H](Oc3ccc4nc(C5CC5)n(Cc5ccc(Cl)cc5)c(=O)c4c3)CCN12 [Example 49] | 1130 nM | 29 nM | 369 nM | 1080 nM | 43 nM |  |  | 
25 | CC(C)(O)Cc1cc2ccn(Cc3ccc(Cl)cc3)c(=O)c2cc1O[C@H]1CCN2C(=O)OC[C@@H]2C1 [Example 34] | 110 nM | 2.1 nM | 74 nM | 81 nM | 1.4 nM |  |  | 
26 | Cc1ncc(-c2cc3nc(C)n(Cc4ccc(Cl)cc4)c(=O)c3cc2O[C@H]2CCN3C(=O)OC[C@@H]3C2)cn1 [Example 90] | 214 nM | 18 nM | 241 nM | 115 nM | 16 nM |  |  | 
27 | O=C1OC[C@@H]2C[C@@H](Oc3ccc4ncn(Cc5ccc(Cl)cc5)c(=O)c4c3)CCN12 [Example 24] | 501 nM | 27 nM | 216 nM | 342 nM | 35 nM |  |  | 
28 | Cc1nc2cc(-c3cnn(C(F)F)c3)c(O[C@H]3CCN4C(=O)OC[C@@H]4C3)cc2c(=O)n1Cc1ccc(Cl)cc1 [Example 4] |  | 1.1 nM |  |  | 3.1 nM | 60 nM | 51 nM | 26 nM
29 | COc1ncc(-c2cc3nc(C)n(Cc4ccc(C#N)cc4)c(=O)c3cc2O[C@H]2CCN3C(=O)OC[C@@H]3C2)cn1 [Example 75] | 381 nM | 29 nM | 164 nM | 413 nM | 23 nM |  |  | 
30 | Cc1nc2cc(-c3cn4c(n3)CNCC4)c(O[C@H]3CCN4C(=O)OC[C@@H]4C3)cc2c(=O)n1Cc1ccc(C#N)cc1 [Example 73] | 3880 nM | 1 nM | 4180 nM | 3020 nM | 5.2 nM |  |  | 
31 | N#Cc1cc2ncn(Cc3ccc(Cl)cc3)c(=O)c2cc1O[C@H]1CCN2C(=O)OC[C@@H]2C1 [Example 41] | 131 nM | 2.7 nM | 77 nM | 75 nM | 1.1 nM |  |  | 

Source: patent publication US12497405B2, “Bicyclic heterocycle compounds methods of use thereof for the treatment of herpes viruses” (Merck Sharp & Dohme LLC, priority 2019, dated 2025)
